“And” between values parts separate entries of the source, which are not always exact repeats. Equal entries are not always repeated.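 A five-concentration, 48-hour dose response in 96-well plates underlies each endpoint, interpolated linearly between surrounding concentrations. Abbreviation: GI50, concentration required for 50% inhibition of growth. The concentration for full growth arrest is given as TGI.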
What was measured:
Experiment in all cases: NCI-60 cell line screen, 48 h
[1] = tested on: A498 renal
[2] = tested on: CAKI-1 renal
[3] = tested on: MCF7 breast
[4] = tested on: RPMI-8226 leukemia
[5] = tested on: HCT-116 colon
[6] = tested on: MDA-MB-435
[7] = tested on: HS 578T breast
[8] = tested on: U251 CNS

| SMILES | GI50 [1] [µM] | TGI [1] [µM] | GI50 [2] | TGI [2] | GI50 [3] | TGI [3] | GI50 [4] | TGI [4] | GI50 [5] | TGI [5] | GI50 [6] | TGI [6] | GI50 [7] | TGI [7] | GI50 [8] | TGI [8] |
| --- | --- | --- | --- | --- | --- | --- | --- | --- | --- | --- | --- | --- | --- | --- | --- | --- |
| CS(=O)(=O)Nc1ccc(-c2cc(-c3ccccc3)cc(C(N)=O)c2N)cc1 | > 20.5 | > 25 | > 22.6 µM | > 25 µM | > 20.5 µM | > 25 µM | 18.4 µM | > 25 µM | > 25 µM | > 25 µM | > 25 µM | > 25 µM | > 22.4 µM | > 25 µM | > 25 µM | > 25 µM |
| O=C(CN(/C=C/C(=O)C(F)(F)F)c1ccc(Cl)cc1)c1ccccc1 | 22 | 43.1 | 0.933 µM | 22.8 µM | > 100 µM | > 100 µM | 12.9 µM | 89.3 µM | 11.6 µM | 23.7 µM | 10.8 µM | 39 µM | 24.3 µM | 68.1 µM | 15.8 µM | 30.8 µM |
| C=CC(=O)NCc1cccc(Nc2ncc(Br)c(NCCCNC(=O)C3CCC3)n2)c1 | 0.549 | 2.08 | 0.279 µM and 0.262 µM | 1.45 µM and 1.48 µM | 1.88 µM and 0.537 µM | 12.5 µM and 4.77 µM | 1.92 µM and 1.88 µM | 8.19 µM and > 25 µM | 1.75 µM and 0.603 µM | 12.5 µM and 14.3 µM | 2.33 µM and 2.14 µM | 8.47 µM and 5.75 µM | 0.295 µM and 0.539 µM | 1.53 µM and 1.86 µM | 0.665 µM and 0.591 µM | 12.5 µM and 5.94 µM |
| COc1cc(OC)c(/C=C\c2ccnc3ccccc23)c(OC)c1 |  | 9.87 |  | 22.2 µM |  | 21.4 µM |  | 13 µM |  | 13.3 µM |  | 1.78 µM |  | 12.1 µM |  | 15.2 µM |
| Clc1ccc2c(c1)N(CCCN1CCCC1)c1ccccc1S2 | 2.2 | 10.2 | 11 µM | 22.9 µM | 3.22 µM | 13.6 µM | 7.4 µM | 24.3 µM | 3.19 µM | 12.1 µM | 1.92 µM | 4.02 µM | 4.92 µM | 30.8 µM | 6.96 µM | 20.5 µM |
| CCCCCCCCN(CCCCCCCC)CCCCCCNc1cc(OC)cc2cccnc12 | 15.6 | 30.5 | 12.1 µM | 32.5 µM | 3.33 µM | 12.4 µM | 7.75 µM | 75.4 µM | 2.37 µM | 6.49 µM | 3.59 µM | 12.8 µM | 11 µM | 29.7 µM | 11.9 µM | 27 µM |
| C=CC(C1=CC(=O)C(OC)=CC1=O)c1ccccc1 (centres undefined) |  | > 100 |  | 31.7 µM |  | 26.2 µM |  | > 67.6 µM |  | 23.4 µM |  | 28.3 µM |  | 69.7 µM |  | 30 µM |
| CC(=O)c1cc(C(=O)c2ccc3c(c2)Sc2ccccc2N3)c2c(C)cc(C)cn12 | 0.0765 | 0.686 | 0.529 µM | 72.9 µM | 0.239 µM | > 100 µM | 0.361 µM | > 27.9 µM | 0.263 µM | > 100 µM | 0.0468 µM | 0.237 µM | 0.343 µM | > 36 µM | 0.396 µM | > 100 µM |
| Cc1ccc(C(SCC(N)C(=O)O)(c2ccc(C)cc2)c2ccc(C)cc2)cc1 (centres undefined) | 4.04 | 14.6 | 2.74 µM | 12.5 µM | 0.895 µM | 18.4 µM | 2.27 µM | 12.5 µM | 0.829 µM | 13 µM | 0.337 µM | 1.16 µM | 0.669 µM | 4.44 µM | 1.71 µM | 16.8 µM |
| Cc1cc(O)ccc1C1=NN(c2ccc(S(C)(=O)=O)cc2)C(=O)CC1 | 2.78 | 45.4 | 2.79 µM | 16.5 µM | 20.7 µM | > 100 µM | 25.6 µM | > 100 µM | 3.78 µM | > 100 µM | 1.28 µM | 5.83 µM | 4.15 µM | > 100 µM | 4.3 µM | > 100 µM |
| CC(C)(C)C(=O)OCOP(=O)(OCOC(=O)C(C)(C)C)C1CC(O)N(O)C1=O (centres undefined) | 4.36 | 47.3 | 4.87 µM | > 100 µM | 3.32 µM | > 100 µM | 2.88 µM | 14.6 µM | 3.72 µM | > 100 µM | 8.15 µM | > 100 µM | 2.59 µM | 7.85 µM | 3.58 µM | 44.1 µM |
| CC1(C)CCC2=C(O1)c1ccccc1C(=O)C2=O |  | 11.3 | 1.74 µM | 3.13 µM and 2.47 µM | 1.53 µM | 3.6 µM and 1.05 µM | 1.46 µM | 5.76 µM and 1.48 µM | 0.511 µM | 2.01 µM and 0.738 µM | 0.191 µM |  |  | 6.32 µM and 0.643 µM | 1.49 µM | 2.95 µM and 1.13 µM |
| O=C1C(=O)c2c(nc3ccc(Br)cn23)-c2ccccc21 | 1.51 | 2.87 | 1.52 µM | 3.01 µM | 0.385 µM | 1.08 µM | 0.388 µM | 2.67 µM | 0.314 µM | 1.2 µM | 0.185 µM | 0.334 µM | 0.438 µM | 2.23 µM | 0.588 µM | 1.87 µM |
